Read-outs that look alike come from different tables or passages of the source. Non-standard residues stand in square brackets, D forms with d. Residues, ends and D or L forms follow the SMILES beside them. No end group written: not given here. NMeF = CN[C@@H](Cc1ccccc1)C(=O)O

For data set [1], the target named is T1, human NPFF1 receptor (Homo sapiens, UniProt Q9GZQ6).
T1 construct: To obtain a full-length hNPFF1 construct in the correct orientation; expressed in transfected cells; host or cells: HEK-293 (transient)
T1 sequence (Q9GZQ6 whole entry): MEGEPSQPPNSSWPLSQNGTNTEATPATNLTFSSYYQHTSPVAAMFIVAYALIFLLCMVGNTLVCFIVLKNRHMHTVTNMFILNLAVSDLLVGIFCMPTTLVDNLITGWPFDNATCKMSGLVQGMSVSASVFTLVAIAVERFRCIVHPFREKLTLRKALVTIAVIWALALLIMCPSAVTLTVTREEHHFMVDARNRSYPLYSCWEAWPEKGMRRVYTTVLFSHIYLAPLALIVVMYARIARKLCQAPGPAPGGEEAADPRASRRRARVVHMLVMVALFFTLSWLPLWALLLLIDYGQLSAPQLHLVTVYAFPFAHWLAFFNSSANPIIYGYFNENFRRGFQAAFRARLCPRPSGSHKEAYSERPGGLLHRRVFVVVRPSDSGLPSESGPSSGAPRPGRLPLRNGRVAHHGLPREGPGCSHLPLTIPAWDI
Description: [125I]D-Tyr-NPFF radioligand binding, HEK-293 cells expressing human NPFF1. On the procedure:
(§1) Transfected cells from culture flasks are scraped into 5 ml of 20 mM Tris-HCl, 5 mM EDTA, pH 7.5, and lysed by sonication. The cell lysates are centrifuged at 1000 rpm for 5 min. at 4° C., and the supernatant is centrifuged at 30,000×g for 20 min. at 4° C. The pellet is suspended in binding buffer (50 mM Tris-HCl, 60 mM NaCl, 1 mM MgCl, 33 μM EDTA, 33 μM EGTA at pH 7.4 supplemented with 0.2% BSA, 2 μg/ml aprotinin, and 20 μM bestatin). Optimal membrane suspension dilutions, defined as the protein concentration required to bind less than 10% of the added radioligand, are added to 96-well polpropylene microtiter plates containing ^3H-labeled compound, unlabeled compounds, and binding buffer to a final volume of 250 μl. In equilibrium saturation binding assays membrane preparations are incubated in the presence of increasing concentrations of [^3H]-labeled compound. The binding affinities of the different compounds are determined in equilibrium competition binding assays, using [^125I]-labeled compound in the presence of ten to twelve different concentrations of the displacing ligands. Competition assay: 50 pM radioligand, 10-12 points. Binding reaction mixtures are incubated for 2 hr at 25° C., and the reaction stopped by filtration through a double layer of GF filters treated with 0.1% polyethyleneimine, using a cell harvester. Wash buffer: 50 mM Tris-HCl, 0.1% BSA. Radioactivity may be measured by scintillation counting and data are analyzed by a computerized non-linear regression program. Non-specific binding is defined as the amount of radioactivity remaining after incubation of membrane protein in the presence of 1 μM final concentration […]. Protein concentration may be measured by the Bradford method using Bio-Rad Reagent, with bovine serum albumin as a standard.
(§2) Additional pharmacological evaluation was done using 293 human embryonic kidney cells (HEK-293 cells) transiently expressing the genes encoding the human NPFF1, NPFF2, and rat NPFF1 receptors, as well as Cos-7 cells expressing the rat NPFF2 receptors.

In data set [2] the target is T2, human NPFF2 receptor (Homo sapiens, UniProt Q9Y5X5).
T2 construct: BO89, was determined to be a full length clone with no point mutations; expressed in transfected cells; host or cells: HEK-293 (transient)
T2 sequence (Q9Y5X5 103-522): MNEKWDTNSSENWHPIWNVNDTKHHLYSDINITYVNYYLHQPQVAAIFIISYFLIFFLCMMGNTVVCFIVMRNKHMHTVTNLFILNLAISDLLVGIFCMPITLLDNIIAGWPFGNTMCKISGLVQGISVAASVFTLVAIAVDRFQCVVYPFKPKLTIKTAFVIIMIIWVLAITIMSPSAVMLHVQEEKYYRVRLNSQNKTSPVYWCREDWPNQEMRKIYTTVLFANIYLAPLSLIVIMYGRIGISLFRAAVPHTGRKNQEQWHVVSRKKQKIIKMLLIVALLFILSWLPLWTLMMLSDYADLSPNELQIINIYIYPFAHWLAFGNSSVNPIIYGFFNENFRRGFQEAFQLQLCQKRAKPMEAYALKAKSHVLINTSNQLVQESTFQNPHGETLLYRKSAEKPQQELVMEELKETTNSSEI
Briefly: [125I]D-Tyr-NPFF radioligand binding, HEK-293 cells expressing human NPFF2. The following applies: Table 3, HEK-293 cells, [125I]D-Tyr-NPFF. How it is done: as §1, §2

Data set [3] addresses T3, rat NPFF2 receptor (Rattus norvegicus, UniProt Q9EQD2).
T3 construct: The full-length rat NPFF2 clone was amplified from rat spinal cord cDNA; expressed in transfected cells; host or cells: COS-7
Briefly: [125I]D-Tyr-NPFF radioligand binding, cloned rat NPFF2. The following applies: Table 3, title HEK-293 cells (text: Cos-7), [125I]D-Tyr-NPFF. How it is done:
as §1, §2

The conditions of data set [4]: cited from earlier work.
The target of data set [5] is T4, rat NPFF1 receptor (Rattus norvegicus, UniProt Q9EP86). Briefly: [125I]D-Tyr-NPFF radioligand binding, HEK-293 cells expressing rat NPFF1. Also noted: expressed in transfected cells. How it is done:
as §1, §2

The target in data set [6] is T3, rat NPFF2 receptor. Briefly: Functional activity at cloned rat NPFF2 in COS-7 cells. It counts as cell-based.
In data set [7] the target is T5, human NPY Y1 receptor (Homo sapiens, UniProt P25929).
T5 sequence (P25929 1-384): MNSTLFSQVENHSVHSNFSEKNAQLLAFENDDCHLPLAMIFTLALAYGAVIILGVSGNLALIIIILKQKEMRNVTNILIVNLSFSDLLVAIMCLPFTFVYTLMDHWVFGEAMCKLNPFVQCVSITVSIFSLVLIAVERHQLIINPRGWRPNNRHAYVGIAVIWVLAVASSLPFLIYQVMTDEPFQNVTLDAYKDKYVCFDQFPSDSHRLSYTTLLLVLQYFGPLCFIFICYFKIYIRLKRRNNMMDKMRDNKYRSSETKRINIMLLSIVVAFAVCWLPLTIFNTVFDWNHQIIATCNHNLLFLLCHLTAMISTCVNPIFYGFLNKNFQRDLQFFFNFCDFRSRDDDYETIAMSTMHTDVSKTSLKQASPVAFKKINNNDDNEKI
The note with it: cited from earlier work.

For data set [8], the target named is T4, rat NPFF1 receptor. Briefly: Functional activity at cloned rat NPFF1 in COS-7 cells. The format is cell-based. On the set-up: expressed in transfected cells; host or cells: COS-7 (transient).
Data set [9] relates to normotensive rats. Briefly: Blood pressure in anesthetized normotensive rats, intravenous administration. The format is in vivo, rat. The text has this: Rats were anesthetized with urethane and PE50 cannulae were placed in the femoral artery and vein for blood pressure monitoring and drug administration, respectively.
Data set [10] has as its system anesthetized rats. Description: Distension-induced rhythmic contraction (DIRC) model of the micturition reflex in anesthetized rats. The format is in vivo, rat. The note with it: i.v. How it is done: The effects of compounds on the micturition reflex were assessed in the “distension-induced rhythmic contraction” (DIRC) model in rats. This model of the micturition reflex has been described in previous publications (e.g. 72, 73).
Female Sprague Dawley rats weighing approximately 300 g were anesthetized with subcutaneous urethane (1.2 g/kg). The trachea was cannulated with PE240 tubing to provide a clear airway throughout the experiment. A midline abdominal incision was made and the left and right ureters were isolated. The ureters were ligated distally (to prevent escape of fluids from the bladder) and cannulated proximally with PE10 tubing. The incision was closed using 4-0 silk sutures, leaving the PE10 lines routed to the exterior for the elimination of urine. The bladder was canulated via the transurethral route using PE50 tubing inserted 2.5 cm beyond the urethral opening. This cannula was secured to the tail using tape and connected to a pressure transducer. To prevent leakage from the bladder, the cannula was tied tightly to the exterior urethral opening using 4-0 silk.
To initiate the micturition reflex, the bladder was first emptied by applying pressure to the lower abdomen, and then filled with normal saline in 100 μl increments (maximum=2 ml) until spontaneous bladder contractions occurred (typically 20-40 mmHg at a rate of one contraction every 2 to 3 minutes. Once a regular rhythm was established, vehicle (saline) or test compounds were administered intravenously to examine their effects on bladder activity. The effect of a compound which inhibited the micturition reflex was expressed as its “disappearance time”, defined as the time between successive bladder contractions in the presence of the test compound minus the time between contractions before compound administration.

In data set [11] the target is T6, NPFF-1 receptor (Rattus norvegicus, UniProt Q9EP86).
T6 construct: expressed in transfected cells; host or cells: COS-7 (transient), alone or co-transfected with Gq/Gz chimera
T6 sequence (Q9EP86 whole entry): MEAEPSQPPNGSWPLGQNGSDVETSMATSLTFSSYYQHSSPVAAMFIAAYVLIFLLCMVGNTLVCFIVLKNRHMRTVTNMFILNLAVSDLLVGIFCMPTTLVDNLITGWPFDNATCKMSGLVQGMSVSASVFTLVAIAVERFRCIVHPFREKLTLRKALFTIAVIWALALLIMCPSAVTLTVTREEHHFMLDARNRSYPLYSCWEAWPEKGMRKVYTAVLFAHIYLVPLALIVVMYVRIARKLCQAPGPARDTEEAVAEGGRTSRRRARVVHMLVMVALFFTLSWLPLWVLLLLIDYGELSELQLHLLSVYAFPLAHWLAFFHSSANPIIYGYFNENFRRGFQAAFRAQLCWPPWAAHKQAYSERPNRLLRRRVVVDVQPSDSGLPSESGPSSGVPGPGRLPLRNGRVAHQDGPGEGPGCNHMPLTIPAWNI
Description: Total inositol phosphate release, Cos-7 cells transiently transfected with NPFF1. The format is cell-based.

For data set [12], the target named is T7, NPFF1 (SNORF2) (Rattus norvegicus, UniProt Q9EP86).
T7 construct: linearized plasmids or PCR products containing the complete coding region of the genes; expressed in transfected cells; host or cells: Xenopus laevis oocytes injected with synthetic RNA (T7 transcripts)
T7 sequence (Q9EP86 whole entry): as above
Description: Voltage-clamp electrophysiology, Xenopus oocytes injected with SNORF2 (NPFF1) and chimeric Gαq/z RNA. The format is cell-based. The following applies: oocytes with SNORF2 + Gαq/z. On the procedure:
Oocytes were harvested from Xenopus laevis and injected with mRNA transcripts as previously described (Quick and Lester, 1994; Smith et al., 1997). […] Three to eight hours prior to recording, oocytes were injected with 500 pg Gαq/z mRNA in order to observe coupling to Ca^++ activated Cl^− currents. Dual electrode voltage clamp (Axon Instruments Inc.) was performed using 3 M KCl-filled glass microelectrodes having resistances of 1-2 Mohm. Unless otherwise specified, oocytes were voltage clamped at a holding potential of −80 mV. During recordings, oocytes were bathed in continuously flowing (1-3 ml/min) medium containing 96 mM NaCl, 2 mM KCl, 1.8 mM CaCl2, 1 mM MgCl2, and 5 mM HEPES, pH 7.5 (ND96). Drugs were applied either by local perfusion from a […] glass capillary tube fixed at a distance of 0.5 mm from the oocyte, or by switching from a series of gravity fed perfusion lines.
Heterologous expression of GPCRs in Xenopus oocytes has been widely used to determine the identity of signaling pathways activated by agonist stimulation (Gundersen et al., 1983; Takahashi et al., 1987). Activation of the phospholipase C (PLC) pathway is assayed by applying test compound in ND96 solution to oocytes previously injected with mRNA for the mammalian receptor and observing inward currents at a holding potential of −80 mV. The appearance of currents that reverse at −25 mV and display other properties of the Ca^++-activated Cl^− (chloride) channel is indicative of mammalian receptor-activation of PLC and release of IP3 and intracellular Ca^++.

[13] abbreviates: COS-7 cells, read-out: EC50, rat NPFF1.
[14] abbreviates: 0.3 mg/kg, 1 minute before the agonist.

T4 sequence (Q9EP86 whole entry): as above
T3 sequence (Q9EQD2 whole entry): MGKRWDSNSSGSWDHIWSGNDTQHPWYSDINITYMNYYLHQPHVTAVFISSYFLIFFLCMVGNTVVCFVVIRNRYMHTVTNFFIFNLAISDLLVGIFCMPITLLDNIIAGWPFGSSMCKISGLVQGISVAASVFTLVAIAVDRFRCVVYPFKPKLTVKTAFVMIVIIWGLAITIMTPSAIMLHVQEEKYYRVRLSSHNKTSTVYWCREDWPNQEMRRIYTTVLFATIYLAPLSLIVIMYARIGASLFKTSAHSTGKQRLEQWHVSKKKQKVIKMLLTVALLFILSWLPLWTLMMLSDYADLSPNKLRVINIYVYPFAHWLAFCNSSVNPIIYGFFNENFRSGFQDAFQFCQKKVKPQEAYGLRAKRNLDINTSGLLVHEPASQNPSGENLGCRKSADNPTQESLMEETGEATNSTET

On to `CC(C)C[C@H](NC(=O)[C@H](N)Cc1ccc(O)cc1)C(=O)N(C)[C@@H](Cc1ccccc1)C(=O)N[C@@H](CCC(N)=O)C(=O)N1CCC[C@H]1C(=O)N[C@@H](CCC(N)=O)C(=O)N[C@@H](CCCN=C(N)N)C(=O)N[C@@H](Cc1ccccc1)C(N)=O` [(D-Tyr^1-(NMe)Phe^3)NPFF] (H-[dY]L[NMeF]QPQRF-NH2), for which the Ki was 7.94 nM in data set [1] (Table 3, read-out: pKi ± SEM, human NPFF1 (converted)); 3.16 nM in [2] (read-out: pKi ± SEM, human NPFF2 (converted)); 2 nM in [3] (read-out: pKi ± SEM, rat NPFF2 (converted)); 1.58 nM in data set [5] (Table 3, read-out: pKi ± SEM, rat NPFF1 (converted)). For the same molecule, the “stable after incubation with rat spinal cord membranes” value in [4] (150 min. incubation) was 90%.
For `NC(N)=NCCC[C@H](NC(=O)C(c1ccccc1)c1ccccc1)C(=O)NCc1ccc(O)cc1` [BIBP3435], in data set [6], the concentration for a half-maximal effect (EC50) worked out at 5420 nM and the “Maximum Effect (% NPFF), rat NPFF2” value was found to be 71 % NPFF. Besides, in data set [7], the “binding affinity, human NPY Y1 receptor” value is listed as > 10,000 nM. For the same molecule, in data set [8] (COS-7 cells), the “Maximum Effect (% NPFF), rat NPFF1” value is reported as 0 % NPFF. Moreover, in data set [8] (setting [13]), the EC50 was > 10000 nM.
`NC(N)=NCCC[C@@H](NC(=O)C(c1ccccc1)c1ccccc1)C(=O)NCc1ccc(O)cc1` [BIBP 3226]: in data set [1] (Table 3), the “pKi ± SEM, human NPFF1” value stood at 6.9 ± 0.04. Further, the “pKi ± SEM, human NPFF2” value in [2] is recorded as 5.9 ± 0.04. Moreover, the “pKi ± SEM, rat NPFF2” value in data set [3] stood at 5.8±0.02. Moreover, in data set [6], it took 944 nM to reach a half-maximal effect (EC50) and the “Maximum Effect (% NPFF), rat NPFF2” value was found to be 67 % NPFF. For the same molecule, in [9] (setting [14]), the “block of pressor response to fPP” value is reported as “completely blocked”, the “block of pressor response to pLeu,Pro-NPY” value is given as “completely blocked” and the “reduction of pressor response to NPFF” value is recorded as ~50%. Further, in data set [10] (0.3 mg/kg), the “block of inhibitory effect of fPP on micturition” value is given as “not blocked” and the “block of inhibitory response to NPFF on micturition” value is on record as “did not block”. Besides, the “pKi ± SEM, rat NPFF1” value in data set [5] (Table 3) is 7.6±0.04. Besides, the “Maximum Effect (% NPFF), rat NPFF1” value in [8] (COS-7 cells) came out at 0 % NPFF. Also, in [8] (setting [13]), the EC50 is > 10000 nM.
In the case of `CC(C)C[C@H](NC(=O)[C@@H](N)Cc1ccccc1)C(=O)N[C@@H](Cc1ccccc1)C(=O)N[C@@H](CCC(N)=O)C(=O)N1CCC[C@H]1C(=O)N[C@@H](CCC(N)=O)C(=O)N[C@@H](CCCNC(=N)N)C(=O)N[C@@H](Cc1ccccc1)C(N)=O` [NPFF], the “Maximum Effect (% NPFF), rat NPFF2” value in data set [6] was 100 % NPFF. For the same molecule, the “Emax, total IP release” value in data set [11] (NPFF1 + Gq/Gz chimera) is listed as “approximately 1500 % basal”; in [11] (NPFF1 alone), “approximately 200 % basal”. For the same molecule, the inward current response result in data set [12] (1 μM, holding potential −80 mV) is reported as “robust inward currents”. Further, in data set [12], the “threshold for activation of inward current” value worked out at 30 nM. Moreover, the “effect on mean arterial blood pressure (MAP)” value in [9] (i.v., NPFF 1.0 mg/kg, fPP 0.1 mg/kg) is on record as “transient increase”. Besides, the “disappearance time of bladder contractions” value in [10] (0.3 to 3.0 mg/kg) is reported as “dose-dependently increased”. The “effect on distension-induced rhythmic contractions of the bladder” value in data set [10] (fPP 0.1 mg/kg) is on record as “inhibited”. Further, in data set [8], the concentration for a half-maximal effect (EC50) was found to be 9.3 nM. Also, the “Maximum Effect (% NPFF), rat NPFF1” value in data set [8] (COS-7 cells) is 100 % NPFF.
For YLFQPQRF-NH2 [Y8Fa], the “degradation on incubation with rat spinal cord membranes” value in data set [4] (after 30 minutes) is “fully degraded”.

The EC50 is the concentration giving half of the maximal effect.

Source of the values: US7276339B2 (H. Lundbeck A/S, priority 1998, dated 2007).
